Where two headings read alike, the source gives them in different places.

Test [1] deals with Aromatase Activity of JAr Tumor Xenografts in Nude Mice. Briefly: In vivo inhibition of aromatase activity of JAr tumor xenografts in nude mice. The arrangement: species or system human (JAr tumor cells) in athymic nude mice. Conditions: vehicle PEG-200, 6 hr post-treatment. The protocol:
(§1) In evaluating the inhibition of aromatase activity, the compounds of the present invention were tested according to the folowing procedure adapted from Johnston et al., J Steroid Biochem., Vol. 20, No. 6A, 1221 (1984) and Johnston, Steroids, Vol. 50, No. 1-3, 105 (1987). Athymic nude mice were subcutaneously injected with 1.5×10^6 human choriocarcinoma trophoblast (JAr) cells, which develop tumor masses of about 1 g in 10 days. Tumor aromatase activity was determined in vitro by measuring the ^3 H2 O resulting from the stereospecific release of 1-β ^3 H from 1-[^3 H]-androstenedione. Cytosol (800×g) from 35 mg of tumor was the source for both aromatase and 3β-steroid dehydrogenase (SDH):isomerase activity. The test compounds were incubated for varying intervals (0-3 hrs) with aromatase prior to the addition of 34 pmol 1-[3H]-androstenedione to start a 30 min aromatase activity assay. When 10-(2-propynyl)-19-norandrost-5-ene-3β,17β-diol was tested in vitro by this procedure the following results were observed:
The compound 10-(2-propynyl)-19-norandrost-5-ene-3β,17β-diol was also evaluated in vivo by treating nude mice with trophoblast tumors. At 6 hr post-treatment intervals, tumor aromatase activity was determined in an in vitro assay as discussed above. The vehicle for oral dosing was PEG-200.

A further test addresses T1, JAr Tumor Aromatase (Homo sapiens, UniProt P11511).
T1 construct: from 35 mg of tumor was the source for both aromatase; from tissue; host or cells: Tumor grown from subcutaneously injected human JAr choriocarcinoma cells in athymic nude mice; 800×g supernatant ('cytosol')
T1 sequence (P11511 1-503): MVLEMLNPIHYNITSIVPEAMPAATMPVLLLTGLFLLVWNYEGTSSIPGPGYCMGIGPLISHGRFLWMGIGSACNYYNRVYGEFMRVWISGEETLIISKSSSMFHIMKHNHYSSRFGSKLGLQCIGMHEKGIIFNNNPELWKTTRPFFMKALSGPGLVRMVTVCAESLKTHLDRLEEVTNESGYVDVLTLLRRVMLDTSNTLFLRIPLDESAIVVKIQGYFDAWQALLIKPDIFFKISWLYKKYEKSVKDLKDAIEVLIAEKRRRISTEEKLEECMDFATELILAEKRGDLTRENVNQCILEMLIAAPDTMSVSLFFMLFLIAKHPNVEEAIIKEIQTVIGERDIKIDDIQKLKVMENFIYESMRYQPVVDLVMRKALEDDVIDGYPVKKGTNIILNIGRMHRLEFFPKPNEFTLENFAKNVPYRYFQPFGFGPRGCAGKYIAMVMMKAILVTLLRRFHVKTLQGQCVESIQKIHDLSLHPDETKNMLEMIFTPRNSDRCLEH
Briefly: Time-dependent JAr tumor aromatase activity (in vitro inhibition; 3H2O release from 1-[3H]-androstenedione, cytosol of JAr tumor). Type of test: biochemical. Conditions: for inhibition at 5 µM: Conc. 5 μM; for inhibition at 5 µM / inhibition at 25 µM: read-out: Relative Percent Inhibition; for inhibition at 25 µM: Conc. 25 μM. The protocol: The aromatase inhibitory action of the compounds of the present invention may be determined using a radioenzymatic assay. An aromatase enzyme preparation is employed from the microsomal fraction isolated from human placenta. Stereospecific elimination of 1β and 2β tritium labels from androgen substrates such as testosterone or androstenedione, and the subsequent appearance of tritated water, is utilized to measure the rate of enzyme reaction during in vitro incubations.
as §1, with “observed: […]” for “observed:”

Regarding `C#CC[C@]12CC[C@H](O)CC1=CC[C@@H]1[C@@H]2CC[C@]2(C)[C@@H](O)CC[C@@H]12` [10-(2-propynyl)-19-norandrost-5-ene-3β,17β-diol], the entries for the “Relative % Inhibition 6 hr Post-treatment” value in test [1] (7 mg/kg oral), in test [1] (10 mg/kg oral) and in test [1] (30 mg/kg oral) were 5.9 ± 3.0%, 27.5 ± 1.5% and 53.4 ± 7.8%, respectively. Moreover, the inhibition at 5 µM stood at 15.1% at JAr Tumor Aromatase (preincubation time 0 hr), 0% at JAr Tumor Aromatase (preincubation time 1 hr), 66.9% on JAr Tumor Aromatase (preincubation time 2 hr) and 71.9% at JAr Tumor Aromatase (preincubation time 3 hr). In addition, the inhibition at 25 µM on JAr Tumor Aromatase (preincubation time 0 hr) was 33.4%; on JAr Tumor Aromatase (preincubation time 1 hr) it was 0%; on JAr Tumor Aromatase (preincubation time 2 hr) it was 86.5%; on JAr Tumor Aromatase (preincubation time 3 hr), 84.9%. In addition, the “type of aromatase inhibition (biphase response)” value on JAr Tumor Aromatase (preincubation 0-3 hr, after enzymatic processing to a more reactive component) was “time-dependent inhibition of aromatase”.
